In experiment [1] the target is NAMPT (Homo sapiens, UniProt P43490). Kind of experiment: Time-Resolved Fluorescence Resonance Energy Transfer (TR-FRET) Binding Assay of NAMPT. The settings on record: 6.8 nM NAMPT, 200 nM probe, equilibrated 3 hours, no substrates. The procedure: Determination of the utility of compounds having Formula (I) as binders to and inhibitors of NAMPT was performed using Time-Resolved Fluorescence Resonance Energy Transfer (TR-FRET) binding assays.
Time-Resolved Fluorescence Resonance Energy Transfer (TR-FRET) Binding Assay of NAMPT
Six L were transferred to 384-well low-volume plates ([…] #3673). To this, 12 L of a 1.5× solution containing enzyme, probe and antibody were added. […] Reactions were equilibrated at room temperature for 3 hours prior to reading on an Envision multi-label plate reader (Perkin Elmer; Ex=337 nm, Em=520 and 495 nm). Time-resolved FRET ratios (Em520/Em495) were normalized to controls, plotted as a function of compound concentration and fit with the four-parameter logistic equation to determine IC50s.

In experiment [2] the test system is PC3 cells. Briefly: NAMPT Cell Proliferation Assay (Cell Titer Glo). The settings on record: Homo sapiens, PC-3, 120 h, incubated 5 days, cell viability. Type of experiment: cell-based. The procedure:
NAMPT Cell Proliferation Assay
PC3 cells were seeded in 96-well black plates (Corning #3904) at 500 cells/well in 90 µl of RPMI media containing 10% heat-inactivated FBS and incubated overnight at 37° C. and 5% CO2 to allow cells to attach to wells. The following day, test compounds were serially diluted in neat DMSO to 1000× final concentrations prior to dilution with RPMI media to 10× and 1% DMSO. Ten L of the 10× compounds were then transferred to wells containing cells to produce a dose response of 10-fold dilutions from […]. Cells were incubated for 5 days at 37° C. and 5% CO2, then cell viability was measured using Cell Titer Glo reagent (Promega #G7571). Percent inhibition values were calculated and fitted to a sigmoidal dose response curves using Assay Explorer software to determine IC50s.

Chain of NAMPT (P43490 whole entry): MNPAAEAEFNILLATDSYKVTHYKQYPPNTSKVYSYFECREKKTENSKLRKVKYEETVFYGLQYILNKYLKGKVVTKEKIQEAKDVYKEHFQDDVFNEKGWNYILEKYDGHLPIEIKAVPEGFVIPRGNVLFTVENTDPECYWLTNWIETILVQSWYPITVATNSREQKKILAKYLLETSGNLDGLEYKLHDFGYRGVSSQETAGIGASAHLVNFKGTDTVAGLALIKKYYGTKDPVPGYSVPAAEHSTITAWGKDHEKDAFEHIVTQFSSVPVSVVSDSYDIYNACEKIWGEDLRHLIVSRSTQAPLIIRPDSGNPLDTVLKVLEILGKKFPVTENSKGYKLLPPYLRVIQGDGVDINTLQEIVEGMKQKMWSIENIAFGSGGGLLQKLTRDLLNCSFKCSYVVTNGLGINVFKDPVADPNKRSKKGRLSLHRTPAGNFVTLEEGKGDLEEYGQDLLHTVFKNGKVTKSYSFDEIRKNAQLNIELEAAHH

`O=C(Nc1ccc(C2CCN(C(=O)c3ccco3)C2)cc1)N1CC(c2cccnc2)C1` (stereo not drawn) [Example 286, N-{4-[1-(furan-2-ylcarbonyl)pyrrolidin-3-yl]phenyl}-3-(pyridin-3-yl)azetidine-1-carboxamide]: the IC50 in experiment [1] was 9.76 nM; in experiment [2] it was 7.66 nM.

For `CN(C)CCC(=O)N1CCC(c2ccc(NC(=O)N3CC(c4cccnc4)C3)cc2)C1` (stereo not drawn) [Example 266, N-{4-[1-(N,N-dimethyl-beta-alanyl)pyrrolidin-3-yl]phenyl}-3-(pyridin-3-yl)azetidine-1-carboxamide], the IC50 in experiment [1] stood at 96.2 nM; in experiment [2], 207 nM.

In the case of `O=C(CC1CCOCC1)N1CC[C@@H](Oc2ccc(NC(=O)N3CC(c4cccnc4)C3)cc2)C1` [Example 76, 3-(pyridin-3-yl)-N-(4-{[(3R)-1-(tetrahydro-2H-pyran-4-ylacetyl)pyrrolidin-3-yl]oxy}phenyl)azetidine-1-carboxamide], the IC50 came out at 83.6 nM in experiment [1] and 22.4 nM in experiment [2].

For `O=C(Nc1ccc(OC2CN(C(=O)c3ccco3)C2)cc1)N1CC(c2cccnc2)C1` [Example 115, N-(4-{[1-(furan-2-ylcarbonyl)azetidin-3-yl]oxy}phenyl)-3-(pyridin-3-yl)azetidine-1-carboxamide], the IC50 in experiment [1] is 9.22 nM; in experiment [2] it was 6.11 nM.

As for `O=C(Nc1ccc(OC2CN(C(=O)c3nccs3)C2)cc1)N1CC(c2cccnc2)C1` [Example 154, 3-(pyridin-3-yl)-N-(4-{[1-(1,3-thiazol-2-ylcarbonyl)azetidin-3-yl]oxy}phenyl)azetidine-1-carboxamide], the IC50 amounted to 24 nM in experiment [1] and 7.89 nM in experiment [2].

For `CCCn1cc(-c2ccc(NC(=O)N3CC(c4cccnc4)C3)cc2)cn1` [Example 158, N-[4-(1-propyl-1H-pyrazol-4-yl)phenyl]-3-(pyridin-3-yl)azetidine-1-carboxamide], the values for the IC50 in experiment [1] and in experiment [2] were 26.3 nM and 36.5 nM, respectively.

Regarding `O=C(Nc1ccc(OC2CN(C(=O)c3ccoc3)C2)cc1)N1CC(c2cccnc2)C1` [Example 151, N-(4-{[1-(furan-3-ylcarbonyl)azetidin-3-yl]oxy}phenyl)-3-(pyridin-3-yl)azetidine-1-carboxamide], the results for the IC50 in experiment [1] and in experiment [2] were 20.8 nM and 15.4 nM, respectively.

As to `COCCOCC(=O)N1CCC(c2ccc(NC(=O)N3CC(c4cccnc4)C3)cc2)C1` (stereo not drawn) [Example 280, N-(4-{1-[(2-methoxyethoxy)acetyl]pyrrolidin-3-yl}phenyl)-3-(pyridin-3-yl)azetidine-1-carboxamide], the values for the IC50 in experiment [1] and in experiment [2] were 101 nM and 114 nM, respectively.

For `O=C(Nc1ccc(C2CCN(C(=O)[C@H]3CCCO3)CC2)cc1)N1CC(c2cccnc2)C1` [Example 54, 3-(pyridin-3-yl)-N-(4-{1-[(2R)-tetrahydrofuran-2-ylcarbonyl]piperidin-4-yl}phenyl)azetidine-1-carboxamide], the figures for the IC50 in experiment [1] and in experiment [2] were 117 nM and 58.9 nM, respectively.

For `O=C(CCN1CCCCC1)N1CC[C@@H](Oc2ccc(NC(=O)N3CC(c4cccnc4)C3)cc2)C1` [Example 327, N-[4-({(3R)-1-[3-(piperidin-1-yl)propanoyl]pyrrolidin-3-yl}oxy)phenyl]-3-(pyridin-3-yl)azetidine-1-carboxamide], the IC50 in experiment [1] stood at 450 nM; in experiment [2], 189 nM.

As for `CC(C)C(C)C(=O)N1CC(Oc2ccc(NC(=O)N3CC(c4cccnc4)C3)cc2)C1` (stereo not drawn) [Example 123, N-(4-{[1-(2,3-dimethylbutanoyl)azetidin-3-yl]oxy}phenyl)-3-(pyridin-3-yl)azetidine-1-carboxamide], the IC50 in experiment [1] came to 14.7 nM; in experiment [2], 8.81 nM.

On to `CCC(C)CC(=O)N1CC[C@@H](Oc2ccc(NC(=O)N3CC(c4cccnc4)C3)cc2)C1` (stereo partly drawn) [Example 298, N-(4-{[(3R)-1-(3-methylpentanoyl)pyrrolidin-3-yl]oxy}phenyl)-3-(pyridin-3-yl)azetidine-1-carboxamide], for which the IC50 was 35.2 nM in experiment [1] and 11.2 nM in experiment [2].

Consider `CC(C)C(=O)N1CCC(c2ccc(NC(=O)N3CC(c4cccnc4)C3)cc2)C1` (stereo not drawn) [Example 65, N-{4-[1-(2-methylpropanoyl)pyrrolidin-3-yl]phenyl}-3-(pyridin-3-yl)azetidine-1-carboxamide], for which the IC50 in experiment [1] turned out to be 56.6 nM; in experiment [2] it was 62.2 nM.

For the molecule `O=C(CC(F)(F)F)N1CCC(c2ccc(NC(=O)N3CC(c4cccnc4)C3)cc2)CC1` [Example 58, 3-(pyridin-3-yl)-N-{4-[1-(3,3,3-trifluoropropanoyl)piperidin-4-yl]phenyl}azetidine-1-carboxamide], the IC50 in experiment [1] turned out to be 17.4 nM; in experiment [2], 7.86 nM.

Regarding `CC(=O)N1CCC(c2ccc(NC(=O)N3CC(c4cccnc4)C3)cc2)C1` (stereo not drawn) [Example 277, N-[4-(1-acetylpyrrolidin-3-yl)phenyl]-3-(pyridin-3-yl)azetidine-1-carboxamide], the half-maximal inhibitory concentration (IC50) in experiment [1] amounted to 76.7 nM; in experiment [2] it was 63.1 nM.

`O=C(Nc1ccc(OC2CCN(C(=O)[C@H]3CCCO3)CC2)cc1)N1CC(c2cccnc2)C1` [Example 5, 3-(pyridin-3-yl)-N-[4-({1-[(2R)-tetrahydrofuran-2-ylcarbonyl]piperidin-4-yl}oxy)phenyl]azetidine-1-carboxamide]: the IC50 stood at 56.8 nM in experiment [1] and 28.3 nM in experiment [2].

Take `CC(C)CCC(=O)N1CC[C@@H](Oc2ccc(NC(=O)N3CC(c4cccnc4)C3)cc2)C1` [Example 315, N-(4-{[(3R)-1-(4-methylpentanoyl)pyrrolidin-3-yl]oxy}phenyl)-3-(pyridin-3-yl)azetidine-1-carboxamide]: the values for the IC50 in experiment [1] and in experiment [2] were 48.7 nM and 54.2 nM, respectively.

For the molecule `CC(C)(O)C(=O)N1CC[C@@H](Oc2ccc(NC(=O)N3CC(c4cccnc4)C3)cc2)C1` [Example 82, N-(4-{[(3R)-1-(2-hydroxy-2-methylpropanoyl)pyrrolidin-3-yl]oxy}phenyl)-3-(pyridin-3-yl)azetidine-1-carboxamide], the IC50 was determined as 9.73 nM in experiment [1] and 7.24 nM in experiment [2].

In the case of `O=C1CC[C@@H](C(=O)N2CCC(c3ccc(NC(=O)N4CC(c5cccnc5)C4)cc3)C2)N1` (stereo partly drawn) [Example 273, N-{4-[1-(5-oxo-L-prolyl)pyrrolidin-3-yl]phenyl}-3-(pyridin-3-yl)azetidine-1-carboxamide], the figures for the IC50 in experiment [1] and in experiment [2] were 203 nM and 7270 nM, respectively.

Regarding `O=C(Nc1ccc(C2CCN(C(=O)[C@@H]3CCCO3)CC2)cc1)N1CC(c2cccnc2)C1` [Example 52, 3-(pyridin-3-yl)-N-(4-{1-[(2S)-tetrahydrofuran-2-ylcarbonyl]piperidin-4-yl}phenyl)azetidine-1-carboxamide], the values for the IC50 in experiment [1] and in experiment [2] were 38.9 nM and 6.78 nM, respectively.

In the case of `O=C(CC1CC1)N1CC[C@@H](Oc2ccc(NC(=O)N3CC(c4cccnc4)C3)cc2)C1` [Example 81, N-(4-{[(3R)-1-(cyclopropylacetyl)pyrrolidin-3-yl]oxy}phenyl)-3-(pyridin-3-yl)azetidine-1-carboxamide], the IC50 in experiment [1] was found to be 30.9 nM; in experiment [2], 17.8 nM.

Consider `CC1(C(=O)N2CCC(c3ccc(NC(=O)N4CC(c5cccnc5)C4)cc3)C2)CC1` (stereo not drawn) [Example 269, N-(4-{1-[(1-methylcyclopropyl)carbonyl]pyrrolidin-3-yl}phenyl)-3-(pyridin-3-yl)azetidine-1-carboxamide], for which the concentration for half-maximal inhibition (IC50) in experiment [1] turned out to be 20.1 nM; in experiment [2], 16.7 nM.

With `CC(C)C(=O)N1CC[C@@H](Oc2ccc(NC(=O)N3CC(c4cccnc4)C3)cc2)C1` [Example 77, N-(4-{[(3R)-1-(2-methylpropanoyl)pyrrolidin-3-yl]oxy}phenyl)-3-(pyridin-3-yl)azetidine-1-carboxamide], the IC50 in experiment [1] turned out to be 61.9 nM; in experiment [2], 17.3 nM.

On to `O=C(CC1CC1)N1CCC(c2ccc(NC(=O)N3CC(c4cccnc4)C3)cc2)CC1` [Example 55, N-{4-[1-(cyclopropylacetyl)piperidin-4-yl]phenyl}-3-(pyridin-3-yl)azetidine-1-carboxamide], for which the IC50 in experiment [1] turned out to be 29.3 nM; in experiment [2] it was 8.06 nM.

`O=C(CC1CCOCC1)N1CCC(c2ccc(NC(=O)N3CC(c4cccnc4)C3)cc2)CC1` [Example 50, 3-(pyridin-3-yl)-N-{4-[1-(tetrahydro-2H-pyran-4-ylacetyl)piperidin-4-yl]phenyl}azetidine-1-carboxamide]: the figures for the IC50 in experiment [1] and in experiment [2] were 15.6 nM and 8.57 nM, respectively.

Take `O=C(Nc1ccc(O[C@H]2CCN(C(=O)c3ccccc3)C2)cc1)N1CC(c2cccnc2)C1` [Example 95, N-(4-{[(3S)-1-benzoylpyrrolidin-3-yl]oxy}phenyl)-3-(pyridin-3-yl)azetidine-1-carboxamide]: the results for the IC50 in experiment [1] and in experiment [2] were 79.1 nM and 66.2 nM, respectively.

In the case of `O=C(Nc1ccc(C2CCN(C(=O)C3CCOC3)C2)cc1)N1CC(c2cccnc2)C1` (stereo not drawn) [Example 68, 3-(pyridin-3-yl)-N-{4-[1-(tetrahydrofuran-3-ylcarbonyl)pyrrolidin-3-yl]phenyl}azetidine-1-carboxamide], the results for the IC50 in experiment [1] and in experiment [2] were 86.2 nM and 59.1 nM, respectively.

Source of the values: patent US9296723B2, “NAMPT inhibitors” (AbbVie Inc., priority 2012, dated 2016).
